Source: patent US12577206B2 (BRISTOL-MYERS SQUIBB COMPANY, priority 2020, dated 2026)

Experiments:
human FPR2 = molecular target: T1, human FPR2 (Homo sapiens, UniProt P25090); assay: FPR2 cyclic adenosine monophosphate (cAMP) assay; assay type: cell-based; conditions: CHO cells overexpressing human FPR2; forskolin 5 μM; inhibition of cAMP production; HTRF; read-out: hFPR2 cAMP2 EC50
T1 sequence (P25090 1-351): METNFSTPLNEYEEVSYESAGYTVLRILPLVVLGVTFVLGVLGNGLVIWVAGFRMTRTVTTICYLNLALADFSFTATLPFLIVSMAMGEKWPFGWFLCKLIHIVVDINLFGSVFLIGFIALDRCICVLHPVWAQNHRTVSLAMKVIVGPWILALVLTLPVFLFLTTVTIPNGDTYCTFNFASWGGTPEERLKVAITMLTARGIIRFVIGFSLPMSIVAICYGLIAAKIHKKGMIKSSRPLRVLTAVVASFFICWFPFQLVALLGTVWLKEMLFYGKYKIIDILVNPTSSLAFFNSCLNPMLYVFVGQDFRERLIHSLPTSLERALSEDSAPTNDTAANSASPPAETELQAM
Summary of the method: (§1)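 CHO/hFPR1 4,000 cells/well, forskolin 10 μM final; CHO/hFPR2 2,000 cells/well, forskolin 5 μM final. IBMX 200 μM, DMSO 1%, DPBS + Ca/Mg + 0.1% BSA, 30 min rt. HTRF cAMP; 4-PL fit.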

human FPR1 = molecular target: T2, human FPR1 (Homo sapiens, UniProt P21462); assay: FPR1 cyclic adenosine monophosphate (cAMP) assay; assay type: cell-based; conditions: CHO cells overexpressing human FPR1; forskolin 10 μM; inhibition of cAMP production; HTRF; read-out: hFPR1 cAMP2 EC50
T2 sequence (P21462 1-350): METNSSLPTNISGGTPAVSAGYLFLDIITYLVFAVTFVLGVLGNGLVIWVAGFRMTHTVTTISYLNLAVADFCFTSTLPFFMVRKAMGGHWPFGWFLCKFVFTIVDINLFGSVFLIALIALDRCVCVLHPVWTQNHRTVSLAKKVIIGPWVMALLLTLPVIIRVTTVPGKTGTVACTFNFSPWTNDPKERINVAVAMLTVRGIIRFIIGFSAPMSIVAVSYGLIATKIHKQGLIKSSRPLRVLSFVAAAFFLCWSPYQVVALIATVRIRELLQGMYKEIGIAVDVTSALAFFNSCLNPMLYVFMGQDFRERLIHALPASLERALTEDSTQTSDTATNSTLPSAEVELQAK
Summary of the method: as §1

Question: How did the EC50 (human FPR2) turn out when `COc1cc(F)c(-c2c(NC(=O)c3ccc(OC(F)F)cc3)c(=O)n(-c3ncccc3C#N)n2C)c(F)c1` [Example 55, N-[2-(3-cyanopyridin-2-yl)-5-(2,6-difluoro-4-methoxyphenyl)-1-methyl-3-oxo-2,3-dihydro-1H-pyrazol-4-yl]-4-(difluoromethoxy)benzamide] was run?
Answer: The EC50 was 8 nM.

Question: And the EC50 (human FPR1)?
Answer: The EC50 was 9600 nM.

Question: Which results are given for `COc1cc(F)c(-c2c(NC(=O)c3ccc(OC(F)(F)F)cc3)c(=O)n(-c3ncccc3C#N)n2C)c(F)c1` [Example 56, N-[2-(3-cyanopyridin-2-yl)-5-(2,6-difluoro-4-methoxyphenyl)-1-methyl-3-oxo-2,3-dihydro-1H-pyrazol-4-yl]-4-(trifluoromethoxy)benzamide]?
Answer: EC50 (human FPR2): 7 nM; EC50 (human FPR1): > 10000 nM

Question: `COc1cc(F)c(-c2c(NC(=O)c3ccc(OC(F)F)cc3)c(=O)n(Cc3nnc(C(C)C)o3)n2C)c(F)c1` [Example 57, N-[5-(2,6-difluoro-4-methoxyphenyl)-1-methyl-3-oxo-2-{[5-(propan-2-yl)-1,3,4-oxadiazol-2-yl]methyl}-2,3-dihydro-1H-pyrazol-4-yl]-4-(difluoromethoxy)benzamide] was tested. Which EC50 (human FPR2) did it give?
Answer: Its EC50 is 150 nM.

Question: And the EC50 (human FPR1)?
Answer: The EC50 was 380 nM.

Question: Which results are given for `COc1cc(F)c(-c2c(NC(=O)c3ccc(OC(F)F)cc3)c(=O)n(CCO)n2C)c(F)c1` [Example 58, N-[5-(2,6-difluoro-4-methoxyphenyl)-2-(2-hydroxyethyl)-1-methyl-3-oxo-2,3-dihydro-1H-pyrazol-4-yl]-4-(difluoromethoxy)benzamide]?
Answer: EC50 (human FPR2): 230 nM; EC50 (human FPR1): > 10000 nM

Question: For `COc1ccnc(-n2c(=O)c(NC(=O)c3ccc(OC(F)F)cc3)c(-c3c(F)cc(OC)cc3F)n2C)c1` [Example 59, N-[5-(2,6-difluoro-4-methoxyphenyl)-2-(4-methoxypyridin-2-yl)-1-methyl-3-oxo-2,3-dihydro-1H-pyrazol-4-yl]-4-(difluoromethoxy)benzamide], which EC50 (human FPR2) is on record?
Answer: Its EC50 is 8 nM.

Question: And the EC50 (human FPR1)?
Answer: The EC50 was > 10000 nM.

Question: Which results are given for `COc1cc(F)c(-c2c(NC(=O)c3ccc(OC(F)F)cc3)c(=O)n(-c3ccc4ccccc4n3)n2C)c(F)c1` [Example 60, N-[5-(2,6-difluoro-4-methoxyphenyl)-1-methyl-3-oxo-2-(quinolin-2-yl)-2,3-dihydro-1H-pyrazol-4-yl]-4-(difluoromethoxy)benzamide]?
Answer: EC50 (human FPR2): 3 nM; EC50 (human FPR1): 210 nM

Question: What does the source list for `COc1cc(F)c(-c2c(NC(=O)c3ccc(OC(F)F)cc3)c(=O)n(-c3cncc(C)n3)n2C)c(F)c1` [Example 61, N-[5-(2,6-difluoro-4-methoxyphenyl)-1-methyl-2-(6-methylpyrazin-2-yl)-3-oxo-2,3-dihydro-1H-pyrazol-4-yl]-4-(difluoromethoxy)benzamide]?
Answer: EC50 (human FPR2): 11 nM; EC50 (human FPR1): 1600 nM

Question: Which results are given for `COc1cc(F)c(-c2c(NC(=O)c3ccc(OC(F)F)cc3)c(=O)n(-c3cc(C(F)(F)F)ccn3)n2C)c(F)c1` [Example 62, N-[5-(2,6-difluoro-4-methoxyphenyl)-1-methyl-3-oxo-2-[4-(trifluoromethyl)pyridin-2-yl]-2,3-dihydro-1H-pyrazol-4-yl]-4-(difluoromethoxy)benzamide]?
Answer: EC50 (human FPR2): 6 nM; EC50 (human FPR1): > 10000 nM

Question: How did the EC50 (human FPR2) turn out when `COc1cc(F)c(-c2c(NC(=O)c3ccc(OC(F)(F)F)cc3)c(=O)n(-c3cc(C(F)(F)F)ccn3)n2C)c(F)c1` [Example 63, N-[5-(2,6-difluoro-4-methoxyphenyl)-1-methyl-3-oxo-2-[4-(trifluoromethyl)pyridin-2-yl]-2,3-dihydro-1H-pyrazol-4-yl]-4-(trifluoromethoxy)benzamide] was run?
Answer: The EC50 was 7 nM.

Question: What about the EC50 (human FPR1) of the same molecule?
Answer: Its EC50 is > 10000 nM.

Question: Which results are given for `COc1cc(F)c(-c2c(NC(=O)c3ccc(OC(F)F)cc3)c(=O)n(-c3cnc4ccccc4n3)n2C)c(F)c1` [Example 64, N-[5-(2,6-difluoro-4-methoxyphenyl)-1-methyl-3-oxo-2-(quinoxalin-2-yl)-2,3-dihydro-1H-pyrazol-4-yl]-4-(difluoromethoxy)benzamide]?
Answer: EC50 (human FPR2): 11 nM; EC50 (human FPR1): 800 nM

Question: `COc1cc(F)c(-c2c(NC(=O)c3ccc(OC(F)F)cc3)c(=O)n(-c3cc(C)cc(C)n3)n2C)c(F)c1` [Example 65, N-[5-(2,6-difluoro-4-methoxyphenyl)-2-(4,6-dimethylpyridin-2-yl)-1-methyl-3-oxo-2,3-dihydro-1H-pyrazol-4-yl]-4-(difluoromethoxy)benzamide] was tested. Which EC50 (human FPR2) did it give?
Answer: The EC50 was 8 nM.

Question: And the EC50 (human FPR1)?
Answer: Its EC50 is > 10000 nM.

Question: For `COc1cc(F)c(-c2c(NC(=O)c3ccc(OC(F)(F)F)cc3)c(=O)n(-c3cc(C)cc(C)n3)n2C)c(F)c1` [Example 66, N-[5-(2,6-difluoro-4-methoxyphenyl)-2-(4,6-dimethylpyridin-2-yl)-1-methyl-3-oxo-2,3-dihydro-1H-pyrazol-4-yl]-4-(trifluoromethoxy)benzamide], which EC50 (human FPR2) is on record?
Answer: The EC50 was 8 nM.

Question: What about the EC50 (human FPR1) of the same molecule?
Answer: The EC50 was 2500 nM.

Question: With `COc1cc(F)c(-c2c(NC(=O)c3ccc(OC(F)F)cc3)c(=O)n(-c3cccc(C(F)F)n3)n2C)c(F)c1` [Example 67, N-[5-(2,6-difluoro-4-methoxyphenyl)-2-[6-(difluoromethyl)pyridin-2-yl]-1-methyl-3-oxo-2,3-dihydro-1H-pyrazol-4-yl]-4-(difluoromethoxy)benzamide] as the molecule, how does the EC50 (human FPR2) read?
Answer: Its EC50 is 9 nM.

Question: What about the EC50 (human FPR1) of the same molecule?
Answer: Its EC50 is 3400 nM.

Question: `COc1cc(F)c(-c2c(NC(=O)c3ccc(OC(F)(F)F)cc3)c(=O)n(-c3cccc(C(F)F)n3)n2C)c(F)c1` [Example 68, N-[5-(2,6-difluoro-4-methoxyphenyl)-2-[6-(difluoromethyl)pyridin-2-yl]-1-methyl-3-oxo-2,3-dihydro-1H-pyrazol-4-yl]-4-(trifluoromethoxy)benzamide] was tested. Which EC50 (human FPR2) did it give?
Answer: Its EC50 is 8 nM.

Question: What about the EC50 (human FPR1) of the same molecule?
Answer: The EC50 was 1000 nM.

Question: Which EC50 (human FPR2) does the source give for `COc1cc(F)c(-c2c(NC(=O)c3ccc(OC(F)F)cc3)c(=O)n(-c3cccc(-n4ccc(C)n4)n3)n2C)c(F)c1` [Example 69, N-[5-(2,6-difluoro-4-methoxyphenyl)-1-methyl-2-[6-(3-methyl-1H-pyrazol-1-yl)pyridin-2-yl]-3-oxo-2,3-dihydro-1H-pyrazol-4-yl]-4-(difluoromethoxy)benzamide] here?
Answer: Its EC50 is 5 nM.

Question: And the EC50 (human FPR1)?
Answer: The EC50 was 5 nM.

Question: `COc1cc(F)c(-c2c(NC(=O)c3ccc(OC(F)(F)F)cc3)c(=O)n(-c3cccc(-n4ccc(C)n4)n3)n2C)c(F)c1` [Example 70, N-[5-(2,6-difluoro-4-methoxyphenyl)-1-methyl-2-[6-(3-methyl-1H-pyrazol-1-yl)pyridin-2-yl]-3-oxo-2,3-dihydro-1H-pyrazol-4-yl]-4-(trifluoromethoxy)benzamide] was tested. Which EC50 (human FPR2) did it give?
Answer: Its EC50 is 3 nM.

Question: And the EC50 (human FPR1)?
Answer: The EC50 was 5 nM.

Question: With `COc1cc(F)c(-c2c(NC(=O)c3ccc(OC(F)F)cc3)c(=O)n(-c3cncc(OC)n3)n2C)c(F)c1` [Example 71, N-[5-(2,6-difluoro-4-methoxyphenyl)-2-(6-methoxypyrazin-2-yl)-1-methyl-3-oxo-2,3-dihydro-1H-pyrazol-4-yl]-4-(difluoromethoxy)benzamide] as the molecule, how does the EC50 (human FPR2) read?
Answer: Its EC50 is 20 nM.

Question: And the EC50 (human FPR1)?
Answer: Its EC50 is 2600 nM.

Question: `COc1cc(F)c(-c2c(NC(=O)c3ccc(OC(F)F)cc3)c(=O)n(-c3cccc(-c4ccccc4)n3)n2C)c(F)c1` [Example 72, N-[5-(2,6-difluoro-4-methoxyphenyl)-1-methyl-3-oxo-2-(6-phenylpyridin-2-yl)-2,3-dihydro-1H-pyrazol-4-yl]-4-(difluoromethoxy)benzamide] was tested. Which EC50 (human FPR2) did it give?
Answer: Its EC50 is 2.7 nM.

Question: What about the EC50 (human FPR1) of the same molecule?
Answer: The EC50 was 180 nM.

Question: How did the EC50 (human FPR2) turn out when `COc1cc(F)c(-c2c(NC(=O)c3ccc(OC(F)(F)F)cc3)c(=O)n(-c3cccc(-c4ccccc4)n3)n2C)c(F)c1` [Example 73, N-[5-(2,6-difluoro-4-methoxyphenyl)-1-methyl-3-oxo-2-(6-phenylpyridin-2-yl)-2,3-dihydro-1H-pyrazol-4-yl]-4-(trifluoromethoxy)benzamide] was run?
Answer: The EC50 was 13 nM.

Question: And the EC50 (human FPR1)?
Answer: The EC50 was 950 nM.

Question: Which results are given for `COc1cc(F)c(-c2c(NC(=O)c3ccc(OC(F)(F)F)cc3)c(=O)n(-c3cccc(OC)n3)n2C)c(F)c1` [Example 74, N-[5-(2,6-difluoro-4-methoxyphenyl)-2-(6-methoxypyridin-2-yl)-1-methyl-3-oxo-2,3-dihydro-1H-pyrazol-4-yl]-4-(trifluoromethoxy)benzamide]?
Answer: EC50 (human FPR2): 6 nM; EC50 (human FPR1): 820 nM

Question: Which EC50 (human FPR2) does the source give for `COc1cc(F)c(-c2c(NC(=O)c3ccc(OC(F)F)cc3)c(=O)n(-c3cccc(OC)n3)n2C)c(F)c1` [Example 75, N-[5-(2,6-difluoro-4-methoxyphenyl)-2-(6-methoxypyridin-2-yl)-1-methyl-3-oxo-2,3-dihydro-1H-pyrazol-4-yl]-4-(difluoromethoxy)benzamide] here?
Answer: The EC50 was 7 nM.

Question: What about the EC50 (human FPR1) of the same molecule?
Answer: Its EC50 is 2300 nM.

Question: `COc1cc(F)c(-c2c(NC(=O)c3ccc(OC(F)F)cc3)c(=O)n(-c3cc(OC)c(C)cn3)n2C)c(F)c1` [Example 77, N-[5-(2,6-difluoro-4-methoxyphenyl)-2-(4-methoxy-5-methylpyridin-2-yl)-1-methyl-3-oxo-2,3-dihydro-1H-pyrazol-4-yl]-4-(difluoromethoxy)benzamide] was tested. Which EC50 (human FPR2) did it give?
Answer: The EC50 was 17 nM.

Question: And the EC50 (human FPR1)?
Answer: The EC50 was 620 nM.
